Paper PMC11571207, “Stereorandomized Oncocins with Preserved Ribosome Binding and Antibacterial Activity” (Journal of Medicinal Chemistry, 2024)
Values after ≈ are worked out from the molar mass of the structure shown. Like-named read-outs stand apart in the source and are kept apart here. Non-standard residues stand in square brackets, D forms with d. Residues, ends and D or L forms follow the SMILES beside them.

Columns and labels:
[1] = system: A. baumannii ATCC19606; assay: microbe, parasite or virus in culture; conditions: for MIC A. baumannii ATCC19606: supplement CSV
In short: (§1)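 Read-out was visible growth after MTT addition, the MIC being the lowest inhibitory peptide concentration. Bacteria grown to log phase in LB were exposed in MH medium to peptide from 64 μg/mL in twofold dilutions for 15-18h at 37°C.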

[2] = system: E. coli W3110; assay: microbe, parasite or virus in culture; conditions: for MIC E. coli W3110: supplement CSV
In short: as §1

[3] = system: K. pneumoniae NCTC 418; assay: microbe, parasite or virus in culture; conditions: for MIC K. pneumoniae NCTC418: supplement CSV
In short: as §1

[4] = system: P. aeruginosa PAO1; assay: microbe, parasite or virus in culture; conditions: for MIC P. aeruginosa PAO1: supplement CSV
In short: as §1

[5] = system: S. aureus COL (MRSA); assay: microbe, parasite or virus in culture; conditions: for MIC S. aureus COL (MRSA): supplement CSV
In short: as §1

[6] = system: E. cloacae; assay: microbe, parasite or virus in culture; conditions: for MIC E. cloacae: supplement CSV
In short: (§2)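 Minimal inhibitory concentrations come from broth microdilution in MH medium, with a top peptide concentration of 64 μg/mL halved serially.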

[7] = system: K. pneumoniae OXA-48; assay: microbe, parasite or virus in culture; conditions: for MIC K. pneumoniae OXA-48: supplement CSV
In short: as §2

[8] = system: P. aeruginosa PA14 2P4 (pmrB); assay: microbe, parasite or virus in culture; conditions: for MIC P. aeruginosa PA14 2P4: supplement CSV
In short: as §2

[9] = system: P. aeruginosa PA14; assay: microbe, parasite or virus in culture; conditions: for MIC P. aeruginosa PA14: supplement CSV
In short: as §2

[10] = system: P. aeruginosa ZEM-1A; assay: microbe, parasite or virus in culture; conditions: for MIC P. aeruginosa ZEM-1A: supplement CSV
In short: as §2

[11] = system: P. aeruginosa ZEM9A; assay: microbe, parasite or virus in culture; conditions: for MIC P. aeruginosa ZEM9A: supplement CSV
In short: as §2

[12] = system: P. aeruginosa PA14 4.13 (phoQ); conditions: for MIC P. aeruginosa PA14 4.13: supplement CSV
[13] = system: P. aeruginosa PA14 4.18 (pmrB); conditions: for MIC P. aeruginosa PA14 4.18: supplement CSV
[14] = system: human red blood cells; assay: Hemolysis assay, minimum hemolytic concentration
[15] = polymyxin B resistant strain, 12.5% MHB pH 7.4, 16–20 h at 37 °C
[16] = polymyxin B resistant strain, full MHB pH 7.4, 16–20 h at 37 °C

Which results are given for `CC[C@@H](C)[C@@H](NC(=O)[C@@H](CCCNC(=N)N)NC(=O)[C@@H](CCCNC(=N)N)NC(=O)[C@H]1CCCN1C(=O)[C@H]1CCCN1C(=O)[C@@H](CCCNC(=N)N)NC(=O)[C@H]1CCCN1C(=O)[C@@H](CCCNC(=N)N)NC(=O)[C@H]1CCCN1C(=O)[C@@H](CC(C)C)NC(=O)[C@@H](Cc1ccc(O)cc1)NC(=O)[C@H]1CCCN1C(=O)[C@H]1CCCN1C(=O)[C@@H](CCCCN)NC(=O)[C@@H](CC(=O)O)NC(=O)[C@H](N)C(C)C)C(=O)N[C@H](Cc1ccc(O)cc1)C(=O)N[C@H](CC(N)=O)C(=O)N[C@H](CCCNC(=N)N)C(N)=O` [D-Onc] (H-[dV][dD][dK][dP][dP][dY][dL][dP][dR][dP][dR][dP][dP][dR][dR][dI][dY][dN][dR]-NH2)?
MIC A. baumannii, 12.5% MHB ([1]; A. baumannii ATCC19606, 12.5% Müller–Hinton medium, 16–20 h at 37 °C): 16 µg/mL (≈ 6.69 µM); MIC A. baumannii, Full MHB ([1]; A. baumannii ATCC19606, full Müller–Hinton medium, 16–20 h at 37 °C): > 64 µg/mL; MIC A. baumannii ATCC19606 ([1]; 12.5% MH pH 7.4): 16 µg/mL (≈ 6.69 µM); MIC A. baumannii ATCC19606 ([1]; full MH pH 7.4): >64 µg/mL; MIC E. coli, 12.5% MHB ([2]; E. coli W3110, 12.5% Müller–Hinton medium, 16–20 h at 37 °C, broth microdilution): 8 µg/mL (≈ 3.35 µM); MIC E. coli, Full MHB ([2]; E. coli W3110, full Müller–Hinton medium, 16–20 h at 37 °C, broth microdilution): 32 µg/mL (≈ 13.4 µM); MIC E. coli W3110 ([2]; 12.5% MH pH 7.4): 8 µg/mL (≈ 3.35 µM); MIC E. coli W3110 ([2]; full MH pH 7.4): 32 µg/mL (≈ 13.4 µM); MIC K. pneumoniae, 12.5% MHB ([3]; K. pneumoniae NCTC 418, 12.5% Müller–Hinton medium, 16–20 h at 37 °C): > 16 µg/mL; MIC K. pneumoniae, Full MHB ([3]; K. pneumoniae NCTC 418, full Müller–Hinton medium, 16–20 h at 37 °C): > 64 µg/mL; MIC K. pneumoniae NCTC418 ([3]; 12.5% MH pH 7.4): >16 µg/mL; MIC K. pneumoniae NCTC418 ([3]; full MH pH 7.4): >64 µg/mL; MIC P. aeruginosa, 12.5% MHB ([4]; P. aeruginosa PAO1, 12.5% Müller–Hinton medium, 16–20 h at 37 °C): 8 µg/mL (≈ 3.35 µM); MIC P. aeruginosa, Full MHB ([4]; P. aeruginosa PAO1, full Müller–Hinton medium, 16–20 h at 37 °C): > 64 µg/mL; MIC P. aeruginosa PAO1 ([4]; 12.5% MH pH 7.4): 8 µg/mL (≈ 3.35 µM); MIC P. aeruginosa PAO1 ([4]; full MH pH 7.4): >64 µg/mL; MIC S. aureus, 12.5% MHB ([5]; S. aureus COL (MRSA), 12.5% Müller–Hinton medium, 16–20 h at 37 °C): >64 / 64 μg/mL; MIC S. aureus, Full MHB ([5]; S. aureus COL (MRSA), full Müller–Hinton medium, 16–20 h at 37 °C): >64 / 64 μg/mL; MIC S. aureus COL (MRSA) ([5]; 12.5% MH pH 7.4): 64 µg/mL (≈ 26.8 µM); MIC S. aureus COL (MRSA) ([5]; full MH pH 7.4): >64 µg/mL; MIC E. cloacae, 12.5% MHB ([6]; 12.5% MHB pH 7.4, 16–20 h at 37 °C): 16 µg/mL (≈ 6.69 µM); MIC E. cloacae, full MHB ([6]; full MHB pH 7.4, 16–20 h at 37 °C): > 64 µg/mL; MIC E. cloacae ([6]; 12.5% MH pH 7.4): 16 µg/mL (≈ 6.69 µM); MIC E. cloacae ([6]; full MH pH 7.4): >64 µg/mL; MIC K. pneumoniae OXA-48, 12.5% MHB ([7]; carbapenem-resistant, 12.5% MHB pH 7.4, 16–20 h at 37 °C): >64/64 μg/mL; MIC K. pneumoniae OXA-48, full MHB ([7]; carbapenem-resistant, full MHB pH 7.4, 16–20 h at 37 °C): >64/64 μg/mL; MIC K. pneumoniae OXA-48 ([7]; 12.5% MH pH 7.4): 64 µg/mL (≈ 26.8 µM); MIC K. pneumoniae OXA-48 ([7]; full MH pH 7.4): >64 µg/mL; MIC P. aeruginosa PA14 2P4 (pmrB), 12.5% MHB [8, 15]: 8 µg/mL (≈ 3.35 µM); MIC P. aeruginosa PA14 2P4 (pmrB), full MHB [8, 16]: > 64 µg/mL; MIC P. aeruginosa PA14 2P4 ([8]; 12.5% MH pH 7.4): 8 µg/mL (≈ 3.35 µM); MIC P. aeruginosa PA14 2P4 ([8]; full MH pH 7.4): >64 µg/mL; MIC P. aeruginosa PA14, 12.5% MHB ([9]; 12.5% MHB pH 7.4, 16–20 h at 37 °C, two different duplicate MIC determinations): 32 µg/mL (≈ 13.4 µM); MIC P. aeruginosa PA14, full MHB ([9]; full MHB pH 7.4, 16–20 h at 37 °C, two different duplicate MIC determinations): > 64 µg/mL; MIC P. aeruginosa PA14 ([9]; 12.5% MH pH 7.4): 32 µg/mL (≈ 13.4 µM); MIC P. aeruginosa PA14 ([9]; full MH pH 7.4): >64 µg/mL; MIC P. aeruginosa ZEM-1A, 12.5% MHB ([10]; clinical isolate, 12.5% MHB pH 7.4, 16–20 h at 37 °C, cells marked c: single measurement (in duplicates)): >64/>64 ^c μg/mL; MIC P. aeruginosa ZEM-1A, full MHB ([10]; clinical isolate, full MHB pH 7.4, 16–20 h at 37 °C, cells marked c: single measurement (in duplicates)): >64/>64 ^c μg/mL; MIC P. aeruginosa ZEM-1A ([10]; 12.5% MH pH 7.4): >64 µg/mL; MIC P. aeruginosa ZEM-1A ([10]; full MH pH 7.4): >64 µg/mL; MIC P. aeruginosa ZEM9A, 12.5% MHB ([11]; clinical isolate, 12.5% MHB pH 7.4, 16–20 h at 37 °C): 32 µg/mL (≈ 13.4 µM); MIC P. aeruginosa ZEM9A, full MHB ([11]; clinical isolate, full MHB pH 7.4, 16–20 h at 37 °C): > 64 µg/mL; MIC P. aeruginosa ZEM9A ([11]; 12.5% MH pH 7.4): 32 µg/mL (≈ 13.4 µM); MIC P. aeruginosa ZEM9A ([11]; full MH pH 7.4): >64 µg/mL; MIC P. aeruginosa PA14 4.13 (phoQ), 12.5% MHB [12, 15]: 16 µg/mL (≈ 6.69 µM); MIC P. aeruginosa PA14 4.13 (phoQ), full MHB [12, 16]: > 64 µg/mL; MIC P. aeruginosa PA14 4.13 ([12]; 12.5% MH pH 7.4): 16 µg/mL (≈ 6.69 µM); MIC P. aeruginosa PA14 4.13 ([12]; full MH pH 7.4): >64 µg/mL; MIC P. aeruginosa PA14 4.18 (pmrB), 12.5% MHB [13, 15]: 16 µg/mL (≈ 6.69 µM); MIC P. aeruginosa PA14 4.18 (pmrB), full MHB [13, 16]: > 64 µg/mL; MIC P. aeruginosa PA14 4.18 ([13]; 12.5% MH pH 7.4): 16 µg/mL (≈ 6.69 µM); MIC P. aeruginosa PA14 4.18 ([13]; full MH pH 7.4): >64 µg/mL; Haemolysis on hRBC, MHC ([14]; 2.5% human red blood cells (final) in 10 mM phosphate, 150 mM NaCl, pH 7.4, 25 °C, 4 h, visual inspection): >1000 µg/mL; MHC human red blood cells ([14]; supplement CSV): >1000 µg/mL
